Results on 13 compounds are retold here after ChEMBL document CHEMBL1134171, “Synthesis and biological activity of novel potent endothelin-converting enzyme-1 inhibitors” (Bioorg Med Chem Lett, 2001).

Assay [1] concerns the target T1, Endothelin-converting enzyme 1 (Homo sapiens) (UniProt P42892).
T1 sequence (whole entry): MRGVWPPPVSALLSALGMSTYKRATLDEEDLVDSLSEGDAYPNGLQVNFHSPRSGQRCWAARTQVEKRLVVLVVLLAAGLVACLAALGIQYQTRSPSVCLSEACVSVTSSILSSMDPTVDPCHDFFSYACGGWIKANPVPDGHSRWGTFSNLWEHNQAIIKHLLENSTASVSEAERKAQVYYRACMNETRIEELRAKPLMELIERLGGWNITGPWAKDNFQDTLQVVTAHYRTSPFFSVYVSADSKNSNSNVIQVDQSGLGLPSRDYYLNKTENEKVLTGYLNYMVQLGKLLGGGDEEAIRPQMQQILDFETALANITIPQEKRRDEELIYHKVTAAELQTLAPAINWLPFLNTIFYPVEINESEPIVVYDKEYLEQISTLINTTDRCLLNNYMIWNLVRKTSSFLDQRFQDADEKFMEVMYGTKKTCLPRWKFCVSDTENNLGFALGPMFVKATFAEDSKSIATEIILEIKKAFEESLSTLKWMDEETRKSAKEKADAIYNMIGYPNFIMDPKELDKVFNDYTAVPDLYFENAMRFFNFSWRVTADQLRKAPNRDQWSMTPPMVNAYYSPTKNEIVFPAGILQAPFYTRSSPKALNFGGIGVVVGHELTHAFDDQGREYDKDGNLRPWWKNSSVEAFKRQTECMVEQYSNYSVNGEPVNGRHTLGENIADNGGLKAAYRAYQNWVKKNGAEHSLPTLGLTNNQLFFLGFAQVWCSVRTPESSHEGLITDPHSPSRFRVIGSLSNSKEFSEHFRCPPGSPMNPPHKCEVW
Briefly: In vitro inhibitory activity was tested against Endothelin converting enzyme 1 at a concentration of 1 uM.

Assay [2] addresses T2, Endothelin-converting enzyme 1 (Homo sapiens, UniProt P42892).
T2 sequence (P42892 whole entry): T1 sequence (whole entry)
Briefly: In vitro inhibitory activity was tested against Endothelin converting enzyme 1.

With `CC(C)[C@H](S)C(=O)NC1(C(=O)N[C@@H](Cc2ccccc2-c2ccccc2)C(=O)O)CCCC1`, in assay [1], the inhibition worked out at 0%. Same read-out and setting: for `CC(C)[C@H](S)C(=O)NC1(C(=O)N[C@@H](Cc2ccc(-c3ccccc3)cc2)C(=O)O)CCCC1` the value was 77%.

As for `COc1cccc(-c2ccc(CC(NC(=O)C3(NC(=O)[C@@H](S)C(C)C)CCCC3)C(=O)O)cc2)c1OC` (stereo partly drawn), half-maximal inhibition in assay [2] (IC50) required 350 nM. In turn, `COc1ccc(-c2ccc(C[C@H](NC(=O)C3(NC(=O)[C@@H](S)C(C)C)CCCC3)C(=O)O)cc2)cc1` showed an inhibition in assay [1] of 49%.

Compound `CC(C)[C@H](S)C(=O)NC1(C(=O)N[C@@H](Cc2cccc(-c3ccccc3)c2)C(=O)O)CCCC1` yielded an inhibition in assay [1] of 39%. Take `CC(C)[C@H](S)C(=O)NC1(C(=O)N[C@@H](Cc2ccccc2)C(=O)O)CCCC1`: in assay [1], the inhibition was determined as 26%.

The compound `CC(C)[C@H](S)C(=O)NC1(C(=O)N[C@H](Cc2ccc(-c3ccccc3)cc2)C(=O)O)CCCC1` showed an inhibition in assay [1] of 18%.

Regarding `CC(C)[C@H](S)C(=O)NC1(C(=O)NC(Cc2ccc(-c3cccnc3)cc2)C(=O)O)CCCC1` (stereo partly drawn), in assay [2], inhibition was half-maximal at 150 nM (IC50). `CC(C)[C@H](S)C(=O)NC1(C(=O)NC(Cc2ccc(-c3cncnc3)cc2)C(=O)O)CCCC1` (stereo partly drawn) displayed an IC50 in assay [2] of 120 nM. In the case of `CC(C)[C@H](S)C(=O)NC1(C(=O)N[C@@H](Cc2ccc(-c3ccc(C(F)(F)F)cc3)cc2)C(=O)O)CCCC1`, the inhibition in assay [1] is 54%. As to `CC(C)[C@H](S)C(=O)NC1(C(=O)NC(Cc2ccc(-c3ccccn3)cc2)C(=O)O)CCCC1` (stereo partly drawn), the IC50 in assay [2] stood at 220 nM. `COc1cc(OC)cc(-c2ccc(CC(NC(=O)C3(NC(=O)[C@@H](S)C(C)C)CCCC3)C(=O)O)cc2)c1` (stereo partly drawn) returned an IC50 in assay [2] of 990 nM. `CC(C)[C@H](S)C(=O)NC1(C(=O)NC(Cc2ccc(-c3ccncc3)cc2)C(=O)O)CCCC1` (stereo partly drawn) came in with an inhibition in assay [1] of 22%.
